From patent US20250295732A1, “COMPOSITIONS AND METHODS FOR ACTIVATING INNATE IMMUNITY” (Zoetis Services LLC, priority 2021, published 2025)

Test system: bovine monocyte-derived macrophages
Test: microRNASeq analysis
Type: cell-based
Conditions: CATH2 vs vehicle
Text: Peripheral blood mononuclear cells (PBMC) were isolated from bovine blood using ficoll gradients. Bovine monocytes were isolated from PBMC using magnetic assisted cell sorting to positively select for CD14+ cells using anti-human CD14 microbeads (Miltenyi Biotec). Purified bovine blood CD14+ monocytes were differentiated into macrophages using an M2-skewing differentiation factor (recombinant bovine M-CSF) over 7 days then exposed to CATH2 or a vehicle control in the presence of bovine casein to mimic aspects of the mammary gland for 24 hr. Following treatment, vehicle and drug were removed and cells were washed to eliminate residual drug and monocyte-derived macrophages were rested for 3 days in order to assess reprogramming. Following the rest period, a subset of vehicle- and CATH2-trained monocyte-derived macrophages were assessed for epigenetic and transcriptomic changes. The remaining cells were challenged with LPS or E. coli bioparticle labeled with pH-sensitive pHrodo green dye and key parameters for macrophage activation/immune response were assessed including glycolytic activity, surface marker expression, gene expression, cytokine production, phagocytosis, reactive nitrogen species production, and miRNA profiling.
Bovine monocyte-derived macrophages were lysed in Buffer RLT with addition of (3-mercaptoethanol (QIAGEN) and stored at −80° C. until miRNA/mRNA isolations could be performed. Total RNA including miRNA was isolated from cell lysates using the miRNeasy Tissues/Cells Advanced kit (QIAGEN) following the manufacturer's instructions. mRNA and miRNA libraries were prepared using the TruSeq Stranded mRNA Library Prep Kit (Illumina) and QIAseq miRNA Library Kit, respectively (QIAGEN) according to the manufacturer's instructions. Libraries were run on the Illumina NextSeq550 System. Sequencing data were analyzed using CLC Genomics Workbench software and QIAGEN Ingenuity Pathway Analysis (IPA).

[1] = 3-day rest, 8-hour post-LPS, Experiment A
[2] = 3-day rest, 8-hour post-LPS, Experiment B
[3] = 3-day rest, 24-hour post-LPS, Experiment A
[4] = 3-day rest, 24-hour post-LPS, Experiment B
[5] = after 3-day rest, prior to LPS challenge

Sequence: RFGRFLRKIRRFRPKVTITIQGSARFG [CATH2, cathelicidin 2 peptide]
- bta-miR-146b Fold change [1]: 2.85
- bta-miR-146b Log2 fold change [1]: 1.51
- bta-miR-148a Fold change [1]: −1.79
- bta-miR-148a Log2 fold change [1]: −0.84
- bta-miR-181b Fold change [1]: 1.60
- bta-miR-181b Log2 fold change [1]: 0.68
- bta-miR-1814c Fold change [1]: −1.77
- bta-miR-1814c Log2 fold change [1]: −0.83
- hsa-miR-155-5p Fold change [1]: 1.89
- hsa-miR-155-5p Log2 fold change [1]: 0.92
- bta-miR-146b Fold change [2]: 1.56
- bta-miR-146b Log2 fold change [2]: 0.64
- bta-miR-148a Fold change [2]: −1.44
- bta-miR-148a Log2 fold change [2]: −0.52
- bta-miR-181b Fold change [2]: 1.76
- bta-miR-181b Log2 fold change [2]: 0.82
- bta-miR-1814c Fold change [2]: −2.05
- bta-miR-1814c Log2 fold change [2]: −1.04
- hsa-miR-155-5p Fold change [2]: 2.20
- hsa-miR-155-5p Log2 fold change [2]: 1.14
- bta-miR-146b Fold change [3]: 4.52
- bta-miR-146b Log2 fold change [3]: 2.18
- hsa-miR-146b-5p Fold change [3]: 2.27
- hsa-miR-146b-5p Log2 fold change [3]: 1.18
- bta-miR-146b Fold change [4]: 4.34
- bta-miR-146b Log2 fold change [4]: 2.12
- hsa-miR-146b-5p Fold change [4]: 1.71
- hsa-miR-146b-5p Log2 fold change [4]: 0.77
- bta-miR-27a-3p Fold change [5]: −1.31
- bta-miR-27a-3p Log fold change [5]: −0.39
- bta-miR-29a Fold change [5]: −1.36
- bta-miR-29a Log fold change [5]: −0.44
- bta-miR-29c Fold change [5]: −1.45
- bta-miR-29c Log fold change [5]: −0.54
- bta-miR-30f Fold change [5]: 1.57
- bta-miR-30f Log fold change [5]: 0.65
- bta-miR-92b Fold change [5]: 1.52
- bta-miR-92b Log fold change [5]: 0.60
- bta-miR-101 Fold change [5]: −1.47
- bta-miR-101 Log fold change [5]: −0.55
- bta-miR-142-5p Fold change [5]: −1.43
- bta-miR-142-5p Log fold change [5]: −0.51
- bta-miR-148a Fold change [5]: −1.78
- bta-miR-148a Log fold change [5]: −0.83
- bta-miR-148b Fold change [5]: −1.43
- bta-miR-148b Log fold change [5]: −0.51
- bta-miR-149-5p Fold change [5]: 1.43
- bta-miR-149-5p Log fold change [5]: 0.52
- bta-miR-181b Fold change [5]: 1.38
- bta-miR-181b Log fold change [5]: 0.47
- bta-miR-184 Fold change [5]: 2.61
- bta-miR-184 Log fold change [5]: 1.38
- bta-miR-187 Fold change [5]: −2.07
- bta-miR-187 Log fold change [5]: −1.05
- bta-miR-193a-5p Fold change [5]: 1.60
- bta-miR-193a-5p Log fold change [5]: 0.68
- bta-miR-197 Fold change [5]: 1.37
- bta-miR-197 Log fold change [5]: 0.46
- bta-miR-199a-3p Fold change [5]: 1.92
- bta-miR-199a-3p Log fold change [5]: 0.94
- bta-miR-296-5p Fold change [5]: 2.10
- bta-miR-296-5p Log fold change [5]: 1.07
- bta-miR-320a Fold change [5]: 1.68
- bta-miR-320a Log fold change [5]: 0.75
- bta-miR-326 Fold change [5]: 1.47
- bta-miR-326 Log fold change [5]: 0.55
- bta-miR-331-3p Fold change [5]: 1.61
- bta-miR-331-3p Log fold change [5]: 0.69
- bta-miR-365-3p Fold change [5]: 1.59
- bta-miR-365-3p Log fold change [5]: 0.67
- bta-miR-374a Fold change [5]: −1.59
- bta-miR-374a Log fold change [5]: −0.67
- bta-miR-500 Fold change [5]: 1.43
- bta-miR-500 Log fold change [5]: 0.51
- bta-miR-652 Fold change [5]: 1.46
- bta-miR-652 Log fold change [5]: 0.54
- bta-miR-877 Fold change [5]: 1.93
- bta-miR-877 Log fold change [5]: 0.95
- bta-miR-1249 Fold change [5]: 1.43
- bta-miR-1249 Log fold change [5]: 0.52
- bta-miR-1260b Fold change [5]: 1.63
- bta-miR-1260b Log fold change [5]: 0.70
- bta-miR-1307 Fold change [5]: 1.49
- bta-miR-1307 Log fold change [5]: 0.57
- bta-miR-2285bf Fold change [5]: −1.52
- bta-miR-2285bf Log fold change [5]: −0.61
- bta-miR-2447 Fold change [5]: 1.92
- bta-miR-2447 Log fold change [5]: 0.94
- bta-miR-6523a Fold change [5]: 1.39
- bta-miR-6523a Log fold change [5]: 0.47
- bta-miR-6529a Fold change [5]: 1.32
- bta-miR-6529a Log fold change [5]: 0.40
- hsa-let-7d-3p Fold change [5]: 1.62
- hsa-let-7d-3p Log fold change [5]: 0.70
- hsa-miR-30e-5p Fold change [5]: −1.45
- hsa-miR-30e-5p Log fold change [5]: −0.54
- hsa-miR-16-1-3p Fold change [5]: −2.57
- hsa-miR-16-1-3p Log fold change [5]: −1.36
- hsa-miR-21-5p Fold change [5]: −1.33
- hsa-miR-21-5p Log fold change [5]: −0.41
- hsa-miR-29a-3p Fold change [5]: −1.32
- hsa-miR-29a-3p Log fold change [5]: 0.40
- hsa-miR-29b-1-5p Fold change [5]: 1.90
- hsa-miR-29b-1-5p Log fold change [5]: 0.92
- hsa-miR-142-3p Fold change [5]: −1.57
- hsa-miR-142-3p Log fold change [5]: −0.65
- hsa-miR-142-5p Fold change [5]: −1.55
- hsa-miR-142-5p Log fold change [5]: −0.63
- hsa-miR-143-3p Fold change [5]: −1.96
- hsa-miR-143-3p Log fold change [5]: −0.97
- hsa-miR-152-3p Fold change [5]: −1.37
- hsa-miR-152-3p Log fold change [5]: 0.45
- hsa-miR-155-5p Fold change [5]: 1.31
- hsa-miR-155-5p Log fold change [5]: 0.39
- hsa-miR-192-5p Fold change [5]: −1.47
- hsa-miR-192-5p Log fold change [5]: −0.56
- hsa-miR-340-5p Fold change [5]: −1.47
- hsa-miR-340-5p Log fold change [5]: −0.56
- hsa-miR-532-3p Fold change [5]: 1.51
- hsa-miR-532-3p Log fold change [5]: 0.60
- hsa-miR-574-3p Fold change [5]: 1.36
- hsa-miR-574-3p Log fold change [5]: 0.44
- hsa-miR-1260b Fold change [5]: 2.19
- hsa-miR-1260b Log fold change [5]: 1.13
- hsa-miR-9983-3p Fold change [5]: −1.40
- hsa-miR-9983-3p Log fold change [5]: 0.48
- hsa-miR-10395-3p Fold change [5]: −2.92
- hsa-miR-10395-3p Log fold change [5]: −1.55
- hsa-miR-12135 Fold change [5]: −1.63
- hsa-miR-12135 Log fold change [5]: −0.71
- Number of miRNAs significantly altered (after rest period, prior to LPS challenge): 51
